Measurements reported in publication PMC9844085, “Bioinformatics-Structural Approach to the Search for New D-Amino Acid Oxidases” (Acta Naturae, 2022).

Molecular target: T1, NhyDAAO (Natronosporangium hydrolyticum, UniProt A0A895YFV4)
T1 construct: gene JQS43_10680; recombinant, gene cloned, expression in E. coli in progress
T1 sequence (A0A895YFV4 1-316): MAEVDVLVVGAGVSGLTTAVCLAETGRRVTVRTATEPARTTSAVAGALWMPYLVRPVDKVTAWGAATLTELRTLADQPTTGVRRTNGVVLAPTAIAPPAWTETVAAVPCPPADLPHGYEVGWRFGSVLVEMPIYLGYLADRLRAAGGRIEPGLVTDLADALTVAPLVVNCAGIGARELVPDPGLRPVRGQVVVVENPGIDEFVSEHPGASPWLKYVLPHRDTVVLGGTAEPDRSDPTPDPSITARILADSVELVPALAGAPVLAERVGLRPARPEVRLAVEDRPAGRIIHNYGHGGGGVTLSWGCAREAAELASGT
Assay: D-amino acid oxidase activity, preliminary experiments, method not given
Assay type: cell-based
Settings: conditions and enzyme purity not told; named among the best substrates

| SMILES | D-amino acid oxidase activity, preliminary experiments, method not given |
| --- | --- |
| N[C@H](Cc1ccccc1)C(=O)O [D-Phe] | Preliminary experiments confirmed that D-Leu and D-Phe are the best substrates for NhyDAAO |
| CC(C)C[C@@H](N)C(=O)O [D-Leu] | Preliminary experiments confirmed that D-Leu and D-Phe are the best substrates for NhyDAAO |
